Results: patent US20190071416A1, “COMPOUNDS FOR TREATMENT OF CANCER AND EPIGENETICS” (Agency For Science, Technology and Research, priority 2015, published 2019)

Biological target: T1, SMYD3 (Homo sapiens, UniProt Q9H7B4)
T1 sequence (Q9H7B4 1-428): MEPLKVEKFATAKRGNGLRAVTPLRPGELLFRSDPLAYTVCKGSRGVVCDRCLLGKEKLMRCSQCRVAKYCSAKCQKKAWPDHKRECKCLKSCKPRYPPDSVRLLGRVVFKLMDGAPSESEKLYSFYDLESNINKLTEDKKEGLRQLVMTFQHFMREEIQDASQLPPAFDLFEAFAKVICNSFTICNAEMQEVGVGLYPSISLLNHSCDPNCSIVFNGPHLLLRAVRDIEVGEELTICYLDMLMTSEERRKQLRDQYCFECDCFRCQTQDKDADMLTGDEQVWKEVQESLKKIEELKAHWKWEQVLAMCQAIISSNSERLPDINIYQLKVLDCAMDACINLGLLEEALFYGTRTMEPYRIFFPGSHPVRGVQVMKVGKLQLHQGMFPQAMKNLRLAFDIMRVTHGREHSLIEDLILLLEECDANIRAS
Experiment: SMYD3 biochemical assay (MTase-Glo, MAP3K2 peptide substrate)
Details: Table 3; MTase assay, MAP3K2 peptide substrate; read-out: IC50
Outline: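 Methylation of MAP3K2 peptide (10 µM final) with SAM (1.0 µM final) by SMYD3, 30 min at room temperature. SAH formed was enzymatically converted to ATP and detected as luminescence with MTase-Glo reagents; IC50 by non-linear regression.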

Row | Compound | IC50 [nM]
1 | CCCOC(=O)N1CCN(C(=O)c2ccc3c(Cl)c4c(nc3c2)CC(c2ccc(F)cn2)CC4)CC1 (stereo not shown) [A094, Propyl 4-(9-chloro-6-(5-fluoropyridin-2-yl)-5,6,7,8-tetrahydroacridine-3-carbonyl)piperazine-1-carboxylate] | 140
2 | CCCOC(=O)N1CCN(C(=O)c2ccc3c(Cl)c4c(nc3c2)CCCC4)CC1C(N)=O (stereo not shown) [A056, Propyl 2-carbamoyl-4-(9-chloro-5,6,7,8-tetrahydroacridine-3-carbonyl)piperazine-1-carboxylate] | 1700
3 | CCCOC(=O)N1CC2CCC1CN2C(=O)c1ccc2c(Cl)c3c(nc2c1)CCCC3 (stereo not shown) [A005, Propyl 5-(9-chloro-5,6,7,8-tetrahydroacridine-3-carbonyl)-2,5-diazabicyclo[2.2.2]octane-2-carboxylate] | 4500
4 | CCCOC(=O)N1CCN(C(=O)c2ccc3c(Cl)c(C)c(-c4ccc(C#N)cc4)nc3c2)C[C@H]1C [B114, Propyl (R)-4-(4-chloro-2-(4-cyanophenyl)-3-methylquinoline-7-carbonyl)-2-methylpiperazine-1-carboxylate] | 420
5 | CCCOC(=O)N1CCN(C(=O)c2ccc3c(Cl)cc(-c4ccc(C(=O)OC)nc4)nc3c2)C[C@H]1C [B178, Propyl (R)-4-(4-chloro-2-(6-(methoxycarbonyl)pyridin-3-yl)quinoline-7-carbonyl)-2-methylpiperazine-1-carboxylate] | 930
6 | CCCOC(=O)N1CCN(C(=O)c2ccc3c(Cl)cc(-c4ccc5ncn(C)c5c4)nc3c2)CC1 [B207, Propyl 4-(4-chloro-2-(1-methyl-1H-benzo[d]imidazol-6-yl)quinoline-7-carbonyl)piperazine-1-carboxylate] | 60
7 | CCCOC(=O)N1CCN(C(=O)c2ccc3c(Cl)cc(-c4ccc(O)c(OCC)c4)nc3c2)CC1 [B181, Propyl 4-(4-chloro-2-(3-ethoxy-4-hydroxyphenyl)quinoline-7-carbonyl)piperazine-1-carboxylate] | 290
8 | CCCOC(=O)N1CCN(C(=O)c2ccc3c(Cl)c4c(nc3c2)CCCC4)CC1COC (stereo not shown) [A110, Propyl 4-(9-chloro-5,6,7,8-tetrahydroacridine-3-carbonyl)-2-(methoxymethyl)piperazine-1-carboxylate] | 840
9 | CCCOC(=O)N1CCN(C(=O)c2ccc3c(Cl)c4c(nc3c2)CC(c2ccc(C)cn2)CC4)C[C@H]1C (stereo partly drawn) [A131, Propyl (2R)-4-(9-chloro-6-(5-methylpyridin-2-yl)-5,6,7,8-tetrahydroacridine-3-carbonyl)-2-methylpiperazine-1-carboxylate] | 110
10 | CCCOC(=O)N1CCN(C(=O)c2ccc3c(Cl)cc(-c4cccs4)nc3c2)CC1 [B084, Propyl 4-(4-chloro-2-(thiophen-2-yl)quinoline-7-carbonyl)piperazine-1-carboxylate] | 540
11 | CCCOC(=O)N1CCN(C(=O)c2ccc3c(Cl)c4c(nc3c2)CCCC4)C(CC(=O)OC)C1 (stereo not shown) [A070, Propyl 4-(9-chloro-5,6,7,8-tetrahydroacridine-3-carbonyl)-3-(2-methoxy-2-oxoethyl)piperazine-1-carboxylate] | 2600
12 | C[C@@H]1CN(C(=O)c2ccc3c(Cl)cc(-c4ccccc4)nc3c2)CCN1C(=O)c1cn(C2CC2)nn1 [D005, (R)-(4-Chloro-2-phenylquinolin-7-yl)(4-(1-cyclopropyl-1H-1,2,3-triazole-4-carbonyl)-3-methylpiperazin-1-yl)methanone] | 77
13 | CCCOC(=O)N1CCN(C(=O)c2ccc3c(Cl)cc(-c4ccnc(C)c4)nc3c2)CC1 [B115, Propyl 4-(4-chloro-2-(2-methylpyridin-4-yl)quinoline-7-carbonyl)piperazine-1-carboxylate] | 780
14 | CCCOC(=O)N1CCN(C(=O)c2ccc3c(Cl)c4c(nc3c2)CCCC4)C(CC(=O)N(C)C)C1 (stereo not shown) [A071, Propyl 4-(9-chloro-5,6,7,8-tetrahydroacridine-3-carbonyl)-3-(2-(dimethylamino)-2-oxoethyl)piperazine-1-carboxylate] | 4200
15 | CCCOC(=O)N1CCN(C(=O)c2ccc3c(Cl)cc(-c4ccc(F)c(OC)c4)nc3c2)CC1 [B087, Propyl 4-(4-chloro-2-(4-fluoro-3-methoxyphenyl)quinoline-7-carbonyl)piperazine-1-carboxylate] | 930
16 | CCCOC(=O)N1CCN(C(=O)c2ccc3c(Cl)c(C)c(-c4ccc(Cl)cc4)nc3c2)CC1 [B021, Propyl 4-(4-chloro-2-(4-chlorophenyl)-3-methylquinoline-7-carbonyl)piperazine-1-carboxylate] | 1300
17 | CCCOC(=O)N1CCN(C(=O)c2ccc3c(Cl)cc(-c4ccc(C(=O)NC)c(F)c4)nc3c2)C[C@H]1C [B216, Propyl (R)-4-(4-chloro-2-(3-fluoro-4-(methylcarbamoyl)phenyl)quinoline-7-carbonyl)-2-methylpiperazine-1-carboxylate] | 230

Row | Compound | IC50 [nM]
18 | CCCOC(=O)N1CCN(C(=O)c2ccc3c(Cl)cc(-c4ccc5c(cnn5C)c4)nc3c2)CC1C (stereo not shown) [B155, Propyl 4-(4-chloro-2-(1-methyl-1H-indazol-5-yl)quinoline-7-carbonyl)-2-methylpiperazine-1-carboxylate] | 180
19 | CCCOC(=O)N1CCN(C(=O)c2ccc3c(Cl)cc(-c4ccc(CN(C)C)cc4)nc3c2)C[C@H]1C [B098, Propyl (R)-4-(4-chloro-2-(4-((dimethylamino)methyl)phenyl)quinoline-7-carbonyl)-2-methylpiperazine-1-carboxylate] | 130
20 | CCCOC(=O)N1CCN(C(=O)c2ccc3c(Cl)cc(-c4ccc(C(C)(C)CN)cc4)nc3c2)CC1 [B285, Propyl 4-(2-(4-(1-amino-2-methylpropan-2-yl)phenyl)-4-chloroquinoline-7-carbonyl)piperazine-1-carboxylate] | 13
21 | CCCOC(=O)N1CCN(C(=O)c2ccc3c(Cl)cc(-c4cnn(C(C)C)c4)nc3c2)CC1 [B229, Propyl 4-(4-chloro-2-(1-isopropyl-1H-pyrazol-4-yl)quinoline-7-carbonyl)piperazine-1-carboxylate] | 1100
22 | CCCOC(=O)N1CCN(C(=O)c2ccc3c(Cl)cc(-c4ccc(OC)c(C)c4)nc3c2)CC1 [B099, Propyl 4-(4-chloro-2-(4-methoxy-3-methylphenyl)quinoline-7-carbonyl)piperazine-1-carboxylate] | 350
23 | CCCOC(=O)N1CCN(C(=O)c2ccc3c(Cl)c4c(nc3c2)CCCC4)C(CC)C1 (stereo not shown) [A016, Propyl 4-(9-chloro-5,6,7,8-tetrahydroacridine-3-carbonyl)-3-ethylpiperazine-1-carboxylate] | 640
24 | CCCOC(=O)N1CCN(C(=O)c2ccc3c(Cl)cc(-c4cnc5[nH]ccc5c4)nc3c2)C[C@H]1C [B132, Propyl (R)-4-(4-chloro-2-(1H-pyrrolo[2,3-b]pyridin-5-yl)quinoline-7-carbonyl)-2-methylpiperazine-1-carboxylate] | 170
25 | CCCOC(=O)N1CCN(C(=O)c2ccc3c(Cl)c4c(nc3c2)CCC(CC(N)=O)C4)CC1 (stereo not shown) [A079, Propyl 4-(7-(2-amino-2-oxoethyl)-9-chloro-5,6,7,8-tetrahydroacridine-3-carbonyl)piperazine-1-carboxylate] | 430
26 | CCCOC(=O)N1CCN(C(=O)c2ccc3c(Cl)cc(-c4cnn(CC(N)=O)c4)nc3c2)CC1 [B249, Propyl 4-(2-(1-(2-amino-2-oxoethyl)-1H-pyrazol-4-yl)-4-chloroquinoline-7-carbonyl)piperazine-1-carboxylate] | 190
27 | CCCOC(=O)N1CCN(C(=O)c2ccc3c(Cl)cc(-c4ccc(C)cc4)nc3c2)CC1 [B010] | 500
28 | CCCOC(=O)N1CCN(C(=O)c2ccc3c(Cl)c4c(nc3c2)CC(C)CC4)CC1 (stereo not shown) [A022, Propyl 4-(9-chloro-6-methyl-5,6,7,8-tetrahydroacridine-3-carbonyl)piperazine-1-carboxylate] | 1000
29 | CCCOC(=O)N1CCN(C(=O)c2ccc3c(Cl)cc(-c4cnn(C)c4)nc3c2)CC1 [B179, Propyl 4-(4-chloro-2-(1-methyl-1H-pyrazol-4-yl)quinoline-7-carbonyl)piperazine-1-carboxylate] | 250
30 | CCCOC(=O)N1CCN(C(=O)c2ccc3c(Cl)cc(-c4ccc(N(C)C)cc4)nc3c2)[C@@H](C)C1 [B076, Propyl (S)-4-(4-chloro-2-(4-(dimethylamino)phenyl)quinoline-7-carbonyl)-3-methylpiperazine-1-carboxylate] | 190
31 | CCCOC(=O)N1CCN(C(=O)c2ccc3c(Cl)cc(-c4cscn4)nc3c2)CC1 [B153, Propyl 4-(4-chloro-2-(thiazol-4-yl)quinoline-7-carbonyl)piperazine-1-carboxylate] | 1130
32 | CCCOC(=O)N1CCN(C(=O)c2ccc3c(Cl)cc(-c4ccc5ocnc5c4)nc3c2)[C@@H](C)C1 [B241, Propyl (S)-4-(2-(benzo[d]oxazol-5-yl)-4-chloroquinoline-7-carbonyl)-3-methylpiperazine-1-carboxylate] | 240
33 | CCCOC(=O)N1CCN(C(=O)c2ccc3c(Cl)c4c(nc3c2)CC(c2ncccc2C)CC4)[C@H](C)C1 (stereo partly drawn) [A109, Propyl (3R)-4-(9-chloro-6-(3-methylpyridin-2-yl)-5,6,7,8-tetrahydroacridine-3-carbonyl)-3-methylpiperazine-1-carboxylate] | 720
34 | CC(C)(C)n1cc(C(=O)N2CCN(C(=O)c3ccc4c(Cl)cc(-c5ccccc5)nc4c3)CC2)nn1 [D008, (1-(Tert-butyl)-1H-1,2,3-triazol-4-yl)(4-(4-chloro-2-phenylquinoline-7-carbonyl)piperazin-1-yl)methanone] | 450
